Test results from patent US20240139197A1, “INHIBITION OF KDM5A FOR PROMOTING ANTIGEN PRESENTATION, INCREASING CD8+ T CELL INFILTRATION AND BOOSTING ANTI-TUMOR IMMUNE RESPONSE” (The Wistar Institute of Anatomy and Biology, priority 2022, published 2024).

Experiments:
H3K4me3 in HGS2 cells = assay: immunoblot of H3K4me3, HGS2; format: cell-based, mouse; details: HGS2, 10 μM, 72 hours
Method: FIG. 6A-FIG. 6K show KDM5A inhibition promotes anti-tumor immune response in vivo. (FIG. 6A) Expression of H3K4me3, Kdm5a and a loading control b-actin in an independent second doxycycline-inducible shKdm5a ID8 clone treated with or without 2 μg/mL of doxycycline. (FIG. 6B) Same as FIG. 6A, but doxycycline-inducible shKdm5a ID8 cells were plated into 24 well plates and treated with 2 μg/mL of doxycycline the same day. Cells were incubated for 8 days. Relative cell viability was determined by colony formation assay. (FIG. 6C) Expression of H3K4me3, Kdm5a and a loading control b-actin in HGS2 cells treated 10 μM of CPI-455 or vehicle controls for 72 hours. […] Relative cell viability was determined by colony formation assay. (FIG. 6E-FIG. 6F) Bioluminescence signal was measured by IVIS system in indicated animal groups in the immunocompetent C57BL/6 mouse model once a week (FIG. 6E) and the survival of the indicated groups was determined by Kaplan-Meier survival curves (FIG. 6F) (n=5 mice per group). […] Ascites volumes produced from the indicated groups were quantified (FIG. 6H). n=5 mice per group. […] (FIG. 6J-FIG. 6K) Bioluminescence signal was measured by IVIS system in indicated animal groups in the immunocompromised NSG mouse model once a week (FIG. 6J), or examined for Kaplan-Meier survival curves for the indicated groups (FIG. 6K). […]

H2-K1 on ID8 cells = assay: cell surface MHC class I H2-K1 by FACS, ID8; format: cell-based, mouse; details: ID8, in response to IFNγ
Excerpt: FIG. 4A-FIG. 4M show KDM5A regulates antigen processing and presentation pathway. (FIG. 4A) Experimental strategy used to identify Kdm5a direct target genes. […] (FIG. 4B) CUT&RUN tracks of the newly identified Kdm5a target gene H2-K1 for Kdm5a and H3K4me3 in ID8 cells. (FIG. 4C) Expression of H2-K1 in doxycycline-inducible shKdm5a ID8 cells, Kdm5a inhibitor CPI-455, or Kdm5a knockout cells with or without IFNγ stimulation determined by RT-qPCR. (FIG. 4D) Cell surface expression of H2-K1 in control and Kdm5a knockout ID8 cells with or without IFNy stimulation was determined by FACS analysis. (FIG. 4E) Quantification of FIG. 4D. (FIG. 4F) Cell surface expression of H2-K1 in control and doxycyclineinducible Kdm5a-knockdown ID8 cells with or without IFNγ stimulation was determined by FACS analysis. (FIG. 4G) Quantification of FIG. 4F. (FIG. 4H) Cell surface expression of H2-K1 in D8 cells treated with vehicle or CPI-455 with or without IFNγ stimulation was determined by FACS analysis. (FIG. 4I) Quantification of FIG. 4H; An isotype matched IgG was used as a negative control for all the FACS analysis. […] Data represent mean±SEM of three biological repeats; P-value was calculated by using a two-tailed Student t test except in FIG. 4L by using Pearson r analysis test and FIG. 4M by using Fisher's exact test. […]

## CPI-455
H3K4me3 in HGS2 cells
  H3K4me3 levels: increase H3K4me3 levels
H2-K1 on ID8 cells
  MHC class I presence on cell surface: increased MHC class I presence on cell surface
